Data: patent US8188081B2, “Methods of treating inflammation using prokineticin 1 receptor antagonists” (Janssen Pharmaceutica, NV, priority 2005, dated 2012)
“And” between values parts separate entries of the source, which are not always exact repeats. Identical values can stand only once. “Also recorded” adds a separate entry of the source.

Tests used:
GPR73 (PK1 receptor) = target: T1, GPR73 (PK1 receptor) (Homo sapiens, UniProt Q8TCW9); assay: PK1 functional assay: screening for PK1 antagonists on the FLIPR (calcium dye) in HEK 293 GPR73 expressing cells; format: cell-based; settings: for inhibition at 10 µM: HEK293, 10 μM compound, read-out: Ca^2+ Mobilization % Inh @10 μM; for inhibition at 10 µM / IC50 / Ca^2+ Mobilization % Inh @10 μM: HEK 293 GPR73 (PK1 receptor) expressing cells, FLIPR; for IC50: PK1 ligand at EC50, read-out: Ca^2+ Mobilization IC50; for Ca^2+ Mobilization % Inh @10 μM: 10 μM compound
T1 construct: expressed in transfected cells; host or cells: HEK 293
Protocol: At a time of 24 h prior to running the assay, in cell culture media (DMEM containing high Glucose and L-glutamine, 10% FBS, 1% Pen/Streptomycin, 1% Sodium Pyruvate, 20 mM HEPES, Zeocin 200 mg/L), 100 μL of 1.3*10^6/ml HEK 293 GPR73 (PK1 receptor) expressing cells were plated in a 96 well poly-d-lysine coated plate (Costar), and incubated at 37° C. and 5% CO2. On the day in which the assay was run, the media was removed and 200 μL of 5× Calcium Plus Dye (Molecular Devices) which was previously resuspended with 200 mL of assay buffer [HBSS w/Ca^2+ and Mg^2+ w/o phenol red, 20 mM HEPES, 0.1% BSA, 10 mL probenecid (710 mg probenecid in 5 mL of 1N NaOH, to which was then added 5 mL HBSS containing 20 mM HEPES)] was added to each well of the 96-well plate. The plate was incubated at 37° C. and 5% CO2 for 30 min in dark. The plate was removed and allowed to reach RT for 15 min in the dark. The assay was then run on the FLIPR. […] Baseline is described as the amount of relative fluorescence read when buffer alone is added to cells. Baseline was subtracted from all wells. Percent of control was calculated as follows: (Baseline subtracted well value is divided by baseline subtracted max value)*100. Percent inhibition is 100 minus the percent of control value.
IC50 values were calculated using GraphPad Prism.
Table 2 includes data generated from the PK1 functional assay described in Example 2.

[1] = target: T2, basolateral Na+-K+-2Cl- co-transporter (Rattus norvegicus, UniProt E9PTX9); settings: bumetanide 500 μM
T2 sequence (E9PTX9 1-1203): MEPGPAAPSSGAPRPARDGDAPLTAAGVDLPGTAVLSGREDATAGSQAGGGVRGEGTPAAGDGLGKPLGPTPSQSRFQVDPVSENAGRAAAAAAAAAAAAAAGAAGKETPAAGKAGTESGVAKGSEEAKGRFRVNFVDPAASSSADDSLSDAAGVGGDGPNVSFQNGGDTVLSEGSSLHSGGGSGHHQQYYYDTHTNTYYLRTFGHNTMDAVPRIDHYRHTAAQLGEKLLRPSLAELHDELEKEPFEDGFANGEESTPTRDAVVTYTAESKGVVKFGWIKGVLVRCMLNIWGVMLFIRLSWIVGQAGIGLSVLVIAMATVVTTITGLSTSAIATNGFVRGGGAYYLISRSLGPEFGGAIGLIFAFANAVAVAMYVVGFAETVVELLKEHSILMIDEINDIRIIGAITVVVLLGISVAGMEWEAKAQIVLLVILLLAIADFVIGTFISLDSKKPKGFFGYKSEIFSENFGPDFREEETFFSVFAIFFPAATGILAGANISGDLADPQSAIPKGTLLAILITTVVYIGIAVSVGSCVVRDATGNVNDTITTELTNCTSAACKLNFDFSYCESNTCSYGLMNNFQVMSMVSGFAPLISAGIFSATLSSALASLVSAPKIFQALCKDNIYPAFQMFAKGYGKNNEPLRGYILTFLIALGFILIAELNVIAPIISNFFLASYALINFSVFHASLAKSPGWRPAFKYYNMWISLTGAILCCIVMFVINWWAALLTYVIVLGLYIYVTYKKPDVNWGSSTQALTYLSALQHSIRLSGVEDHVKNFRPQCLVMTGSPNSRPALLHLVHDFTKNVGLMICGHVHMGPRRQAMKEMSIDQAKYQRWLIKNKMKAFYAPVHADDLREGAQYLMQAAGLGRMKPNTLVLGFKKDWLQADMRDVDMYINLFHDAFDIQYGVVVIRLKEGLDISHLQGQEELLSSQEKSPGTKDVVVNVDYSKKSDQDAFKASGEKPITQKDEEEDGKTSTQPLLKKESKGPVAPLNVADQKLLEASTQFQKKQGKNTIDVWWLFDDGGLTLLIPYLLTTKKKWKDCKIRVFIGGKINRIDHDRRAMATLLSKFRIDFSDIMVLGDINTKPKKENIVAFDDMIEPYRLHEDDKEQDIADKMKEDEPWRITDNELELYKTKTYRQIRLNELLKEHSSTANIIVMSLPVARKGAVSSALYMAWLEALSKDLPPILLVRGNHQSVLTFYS
Source text: Methodology. The basic methodology for Using-type ion flux chambers used in these studies was the same as that described in detail above with the following modifications to the experimental protocol. To determine the mechanism of action of the pro-secretory action of PK1 on the epithelium, three separate approaches were utilized to abolish electrogenic chloride ion or bicarbonate ion transport across the epithelium. […] The second approach involved replacement of all chloride ions in the physiological buffer solution used to maintain living tissues in the Using chambers, thus substituting a chloride-free KRB solution by an equimolar substitution of isethionate and acetate salts for the chloride salts listed in the standard KRB recipe above. The third approach involved replacement of all bicarbonate ions in the physiological buffer solution, thus substituting a bicarbonate-free KRB solution by an equimolar substitution of Piperazine-N,N′-bis(2-ethanesulfonic acid) (PIPES) for the bicarbonate salt, and addition of 1 mM acetazolamide, a blocker of intracellular carbonic anhydrase, to prevent bicarbonate production by the enterocyte.

rat ileum = assay: Contractility of isolated rat GI segments ex vivo (myobath organ bath), response to PK1

T1 sequence (Q8TCW9 whole entry, species assumed): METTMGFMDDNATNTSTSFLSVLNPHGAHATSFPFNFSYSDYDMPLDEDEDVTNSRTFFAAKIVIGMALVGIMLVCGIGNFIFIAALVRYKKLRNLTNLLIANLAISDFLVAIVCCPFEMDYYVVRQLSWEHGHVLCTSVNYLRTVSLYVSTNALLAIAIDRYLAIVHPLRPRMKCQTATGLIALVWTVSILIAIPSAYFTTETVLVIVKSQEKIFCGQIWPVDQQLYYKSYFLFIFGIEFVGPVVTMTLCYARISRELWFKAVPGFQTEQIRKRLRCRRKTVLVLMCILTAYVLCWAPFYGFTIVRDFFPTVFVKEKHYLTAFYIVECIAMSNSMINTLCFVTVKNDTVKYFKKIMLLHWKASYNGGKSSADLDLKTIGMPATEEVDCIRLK

COc1ccc(Cn2c(NCCONC(=N)N)nc(=O)n(Cc3ccccc3)c2=O)cc1 [Cpd 10] gave an inhibition at 10 µM (GPR73 (PK1 receptor)) of 33% and an IC50 (GPR73 (PK1 receptor)) greater than 10 µM.
With “N-{2-[5-(4-Fluoro-benzyl)-1-(4-methoxy-benzyl)-4,6-dioxo-1,4,5,6-tetrahydro-[1,3,5]triazin-2-ylamino]-ethyl}-N-amino-guanidine [Cpd 93]” the “Ca^2+ Mobilization % Inh @10 μM” value (GPR73 (PK1 receptor)) was 92% and the IC50 (GPR73 (PK1 receptor)) was 0.227 µM.
For CCCCNc1cc(C(=O)O)cc(S(N)(=O)=O)c1Oc1ccccc1 [bumetanide, Bumetanide], the “effect on baseline G” value [1] was “did not significantly change”, the “change in baseline Isc after addition to the serosal bathing solution” value ([1]; n=5, not significantly different from DMSO vehicle) was −7.1+/−8.6 μA/cm^2 and the “attenuation of the PK1-evoked increase in Isc” value ([1]; serosal) was greater than 90%.
For “N-{2-[5-(4-Fluoro-benzyl)-1-(4-methoxy-benzyl)-4,6-dioxo-1,4,5,6-tetrahydro-[1,3,5]triazin-2-ylamino]-ethyl}-N-(2-fluoro-phenyl)-guanidine [Cpd 118]”, the “Ca^2+ Mobilization % Inh @10 μM” value (GPR73 (PK1 receptor); 10 µM) was 98% and 102% and the IC50 (GPR73 (PK1 receptor)) was 0.006 µM.
COc1ccc(Cn2c(NCCNC(=N)N)nc(=O)n(Cc3ccccc3OC)c2=O)cc1 [Cpd 21] gave an IC50 (GPR73 (PK1 receptor)) greater than 10 µM.
COc1ccc(Cn2c(NCCNC(=N)N)nc(=O)n(Cc3cccc(C#N)c3)c2=O)cc1 [Cpd 98] gave an IC50 (GPR73 (PK1 receptor)) greater than 10 µM.
For “N-{2-[5-Benzyl-1-(4-methoxy-benzyl)-4,6-dioxo-1,4,5,6-tetrahydro-[1,3,5]triazin-2-ylamino]-ethyl}-oxyguanidine [Cpd 27]”, the “Ca^2+ Mobilization % Inh @10 μM” value (GPR73 (PK1 receptor)) was 55%.
With COc1ccc(Cn2c(N[C@H]3CCCC[C@@H]3NC(=N)N)nc(=O)n(Cc3ccc(Cl)c(Cl)c3)c2=O)cc1 [JNJ 28611921] the “activity at the PK1 receptor” value (GPR73 (PK1 receptor); cellular assay) was “lack significant activity; also recorded: not active”.
COc1ccc(Cn2c(N[C@H]3CCCC[C@@H]3NC(=N)N)nc(=O)n(Cc3ccc(Cl)c(Cl)c3)c2=O)cc1 [Cpd 43] was tested, and the IC50 (GPR73 (PK1 receptor)) was greater than 10 µM.
For “N-{2-[5-(4-Fluoro-benzyl)-1-(4-methoxy-benzyl)-4,6-dioxo-1,4,5,6-tetrahydro-[1,3,5]triazin-2-ylamino]-ethyl}-N-(4-fluoro-phenyl)-guanidine [Cpd 119]”, the “Ca^2+ Mobilization % Inh @10 μM” value (GPR73 (PK1 receptor); 10 µM) was 102% and 99% and the IC50 (GPR73 (PK1 receptor)) was 0.006 µM and 0.012 µM.
COc1ccc(Cn2c(NCCNC(=N)N)nc(=O)n(Cc3ccc(C(=O)O)cc3)c2=O)cc1 [Cpd 101, 4-[4-(2-Guanidino-ethylamino)-3-(4-methoxy-benzyl)-2,6-dioxo-3,6-dihydro-2H-[1,3,5]triazin-1-ylmethyl]-benzoic acid] showed an IC50 (GPR73 (PK1 receptor)) greater than 10 µM.
In the case of COc1ccc(Cn2c(NCCNC(=N)N)nc(=O)n(CC(C)(C)C)c2=O)cc1 [Cpd 123], the IC50 (GPR73 (PK1 receptor)) is reported as greater than 10 µM.
In the case of N=C(N)NCCNc1nc(=O)n(Cc2ccccc2)c(=O)n1Cc1cccc(C(F)(F)F)c1 [Cpd 7], the IC50 (GPR73 (PK1 receptor)) is reported as greater than 10 µM.
Molecule N=C(N)NCCNc1nc(=O)n(Cc2ccccc2)c(=O)n1Cc1ccncc1 [Cpd 11] has an IC50 (GPR73 (PK1 receptor)) greater than 10 µM.
For COc1ccc(Cn2c(N[C@@H](C)[C@H](C)NC(=N)N)nc(=O)n(Cc3ccc(F)cc3)c2=O)cc1 [Cpd 136], the IC50 (GPR73 (PK1 receptor)) was greater than 10 µM.
In the case of “N-{2-[5-(3,4-Dichloro-benzyl)-1-(4-methoxy-benzyl)-4,6-dioxo-1,4,5,6-tetrahydro-[1,3,5]triazin-2-ylamino]-ethyl}-N-isopropyl-guanidine [Cpd 58]”, the “Ca^2+ Mobilization % Inh @10 μM” value (GPR73 (PK1 receptor); 10 µM) is reported as 102% and 99%.
Work on COc1ccc(Cn2c(=O)nc(NCCNC(=N)N)n(Cc3ccc(O)cc3)c2=O)cc1 [Cpd 143, N-{2-[1-(4-Hydroxy-benzyl)-5-(4-methoxy-benzyl)-4,6-dioxo-1,4,5,6-tetrahydro-[1,3,5]triazin-2-ylamino]-ethyl}-guanidine] yielded an inhibition at 10 µM (GPR73 (PK1 receptor)) of 101%.
With “N-Benzoyl-N-{2-[5-(4-fluoro-benzyl)-1-(4-methoxy-benzyl)-4,6-dioxo-1,4,5,6-tetrahydro-[1,3,5]triazin-2-ylamino]-ethyl}-guanidine [Cpd 134]” the “Ca^2+ Mobilization % Inh @10 μM” value (GPR73 (PK1 receptor)) was 97, 97% and the IC50 (GPR73 (PK1 receptor)) was 0.019 µM and 0.028 µM.
In the case of N=C(N)NCCNc1nc(=O)n(Cc2ccc(F)cc2)c(=O)n1Cc1ccc([N+](=O)[O-])cc1 [Cpd 87], the IC50 (GPR73 (PK1 receptor)) is reported as greater than 10 µM.
N=C(N)NCCNc1nc(=O)n(Cc2ccccc2)c(=O)n1Cc1ccc(F)cc1 [Cpd 1] was tested, and the IC50 (GPR73 (PK1 receptor)) was greater than 10 µM.
In the case of COc1ccc(Cn2c(NCCNC(=N)NCCc3ccccc3)nc(=O)n(Cc3ccc(Cl)c(Cl)c3)c2=O)cc1 [Cpd 65], the “Ca^2+ Mobilization % Inh @10 μM” value (GPR73 (PK1 receptor)) is reported as 88%.
In the case of CN1[C@@H]2CC[C@H]1C[C@@H](OC(=O)C(CO)c1ccccc1)C2 (stereo partly shown) [Atropine, reference compound], the “effect on the early component of the PK1-evoked contractile response” value (rat ileum) is reported as “attenuate”.
In the case of COc1ccc(Cn2c(NCCNC(=N)NCCc3ccccn3)nc(=O)n(Cc3ccc(F)cc3)c2=O)cc1 [Cpd 105], the “Ca^2+ Mobilization % Inh @10 μM” value (GPR73 (PK1 receptor)) is reported as 100%.
For COc1ccc(Cn2c(NCCN(C(=N)N)c3ccccn3)nc(=O)n(Cc3ccc(F)cc3)c2=O)cc1 [Cpd 104, N-{2-[5-(4-Fluoro-benzyl)-1-(4-methoxy-benzyl)-4,6-dioxo-1,4,5,6-tetrahydro-[1,3,5]triazin-2-ylamino]-ethyl}-N-pyridin-2-yl-guanidine], the “Ca^2+ Mobilization % Inh @10 μM” value (GPR73 (PK1 receptor); 10 µM) was 99%.
For NC1=N[C@H](O)[C@H]2[C@H]3O[C@]4(O)O[C@@H]([C@@H](O)[C@@]2(N1)[C@@H]4O)[C@]3(O)CO [Tetrodotoxin, reference compound], the “effect on the early component of the PK1-evoked contractile response” value (rat ileum) was “attenuate”.
Work on COc1ccc(Cn2c(NCCNC(=N)N)nc(=O)n(Cc3cccc(N)c3)c2=O)cc1 [Cpd 96] yielded an IC50 (GPR73 (PK1 receptor)) greater than 10 µM.
COc1ccc(Cn2c(N[C@H](C)[C@@H](C)NC(=N)N)nc(=O)n(Cc3ccc(F)cc3)c2=O)cc1 [Cpd 137] gave an inhibition at 10 µM (GPR73 (PK1 receptor)) of 98%.
